Patent publication US20120202287A1, “Stem Cell Culture Methods” (priority 2009, published 2012)

Tested on: SA121 hESCs
Assay: General (monolayer) differentiation on matrigel in defined media, qRT-PCR of stem cell and differentiation markers after 14 days
Type: cell-based, human
Parameters: key to NO EHNA EFFECT: X: NO EHNA EFFECT; key to Full EHNA effect: those which maintained at least 50% of the level of NANOG-expression in comparison to EHNA and those that inhibited the expression of PAX6 to 50% or less than the value untreated controls were considered to have an EHNA-like effect
Conditions: for NO EHNA EFFECT / Full EHNA effect / PARTIAL EHNA EFFECT (PAX6): 10 uM; for NO EHNA EFFECT: neither NANOG nor PAX6 criterion met; for Full EHNA effect: NANOG at least 50% of EHNA level and PAX6 50% or less of untreated control; for PARTIAL EHNA EFFECT (PAX6): only PAX6 50% or less of untreated control
Experimental: In order to ascertain the efficacy of the compounds of the present invention, each compound was tested to determine whether it can maintain the stem cell marker NANOG and/or block the differentiation marker PAX6 in the face of differentiating conditions in a manner similar to EHNA. Cells enzymatically passaged onto matrigel-coated dishes and grown for 2 weeks in defined media with or without (control) compound addition were analysed by qRT-PCR to determine the level of NANOG and PAX6 expression.
For general differentiation experiments cells were passaged with trypsin onto matrigel coated twelve-well dishes in the fully supportive media (see above). The media was then changed to defined media 24 h later and any experimental component was first added at this point. The media and experimental supplement were changed daily.
Cells were routinely harvested for qRT-PCR analysis 14 days after the first addition of the experimental compound.
Total RNA was extracted using QIAGEN RNeasy kits (Qiagen Inc, Valencia, Calif., http://www.qiagen.com) and DNaseI treatment was performed using Turbo DNA-Free (Ambion). The absence of genomic DNA was confirmed by quantitative PCR (qPCR) (see below) using glyceraldehyde-3-phosphate dehydrogenase (GAPDH) Taqman primers and probe (MWG). cDNA was synthesized with 2 μg total RNA in 20 μl using Superscript II according to manufacturers' instructions ((Carlsbad, Calif., http://www.Invitrogen.com)). For qPCR, cDNAs were diluted 1 in 60 and 5 μl used per sample in a 15 μl total reaction volume. Platinum pPCR supermix UDG with Rox (Carlsbad, Calif., http://www.Invitrogen.com) was used according to the manufacturer's instructions using an Applied Biosystems 7300 real time PCR system (Applied Biosystems, Warrington, UK, http://europe.appliedbiosystems.com). Each reaction contained 0.6 μM of each primer and Taqman probe (MWG). Biological and technical replicates were each performed in triplicate for each sample, standardised to the GAPDH housekeeping gene and relative expression values were calculated using the 7300 system SDS software (Applied Biosystems, Warrington, UK, http://europe.appliedbiosystems.com).
Cells were enzymatically passaged onto matrigel-coated dishes and grown for 2 weeks in defined media. After 14 days, qRT-PCR was utilised to analyse the expression of a variety of markers of pluripotency and differentiation. In the graphs in FIG. 9 the value 1 was set to the expression level of the gene in undifferentiated SA121 hESCs.
Cells were enzymatically passaged onto matrigel-coated dishes and grown for 2 weeks in defined media (1× confluent T25 tissue culture flask was passaged to 2×12 well dishes) with or without (control) compound addition. All compounds were added at 10 uM and each was performed in triplicate. Media and compounds were changed every 48 hours. After 14 days RNA was isolated and qRT-PCR was utilised to analyse the expression of NANOG and PAX6. The results are illustrated in FIGS. 13 to 17.
In the graphs in FIGS. 13, 14 15, 16 and 17 the value 1 was set relative to the expression level of the gene in the control (no compound) samples. […] This experiment allowed the effect of the EHNA-related compounds to be measured directly in comparison to EHNA. […] Those which had on effect, to these levels, on either PAX6 or NANOG were considered to have a partial-EHNA effect.

| SMILES | Full EHNA effect (14 days, qRT-PCR) | PARTIAL EHNA EFFECT (PAX6) (14 days, qRT-PCR) | further results |
| --- | --- | --- | --- |
| CCCCCCC(C(C)O)n1nnc2cnccc21 (racemic) [HWC54, (rac)-erythro-3-(1H-[1,2,3]triazolo[4,5-c]pyridin-1-yl)nonan-2-ol] | – | – | NO EHNA EFFECT (14 days, qRT-PCR): X |
| CCCCCCC(CC)n1cnc2c(N)ncnc21 (racemic) [HWC57, (rac)-9-(Nonan-3-yl)-9H-purin-6-amine] | X | – | – |
| CCCCCC(CC)n1cnc2c(N)ncnc21 (racemic) [HWC62, (rac)-9-(octan-3-yl)-9H-purin-6-amine] | X | – | – |
| CCCCCCCC(CC)n1cnc2c(N)ncnc21 (racemic) [HWC63, (rac)-9-(decan-3-yl)-9H-purin-6-amine] | – | X (Those which had on effect, to these levels, on either PAX6 or NANOG were considered to have a partial-EHNA effect) | – |
| COc1ccc(Cc2nn3c([C@@H](CCCc4ccccc4)[C@@H](C)O)nc(C)c3c(=O)[nH]2)cc1OC [BAY-60-7550, reference compound] | – | – | PAX6 expression in differentiating conditions (qRT-PCR, 14 days): nor did they inhibit PAX6 induction; stem cell marker expression (NANOG, ZFP42, POU5F1) in differentiating conditions (qRT-PCR, 14 days, FIG. 9a): Neither BAY nor IBMX maintained stem cell marker expression |
| CCCCCCCCCCn1cc2c(N)ncnc2n1.Cl [HWC6, 2-decyl-2H-pyrazolo[3,4-d]pyrimidin-4-amine hydrochloride] | X | – | prevention of differentiation of hESCs (FIG. 10): can prevent differentiation of hESCs; PAX6 expression in differentiating conditions (qRT-PCR, 14 days): inhibiting PAX6 expression; NANOG expression in differentiating conditions (qRT-PCR, 14 days, relative to untreated control): capable of maintaining NANOG |
| CCCCCC[C@@H]([C@@H](C)O)n1cnc(C(=O)NC)c1 [HWC7, erythro-1-(2-hydroxynonan-3-yl)-N-methyl-1H-imidazole-4-carboxamide] | – | – | NO EHNA EFFECT (14 days, qRT-PCR): X |
| CCCCCC[C@@H]([C@@H](C)O)n1cnc2cnccc21 [HWC8, erythro-3-(1H-imidazo[4,5-c]pyridin-1-yl)nonan-2-ol] | – | X (Those which had on effect, to these levels, on either PAX6 or NANOG were considered to have a partial-EHNA effect) | – |
| CCCCCC[C@@H]([C@@H](C)O)n1cnc2c(N)nccc21.Cl [HWC9, erythro-3-(4-Amino-1H-imidazo[4,5-c]pyridin-1-yl)nonan-2-ol hydrochloride] | – | X (Those which had on effect, to these levels, on either PAX6 or NANOG were considered to have a partial-EHNA effect) | – |
| CCCCCCC(C(C)O)n1cnc2c(Cl)ncnc21 (stereo not drawn) [HWC10, erythro-3-(6-Chloro-9H-purin-9-yl)nonan-2-ol] | – | X (Those which had on effect, to these levels, on either PAX6 or NANOG were considered to have a partial-EHNA effect) | – |
| CCCCCC[C@@H]([C@@H](C)O)n1cnc2cncnc21 [HWC12, erythro-3-(9H-purin-9-yl)nonan-2-ol] | – | X (Those which had on effect, to these levels, on either PAX6 or NANOG were considered to have a partial-EHNA effect) | – |
| CCCCCCC(C(C)O)n1cnc2c(S)ncnc21.Cl (stereo not drawn) [HWC13, erythro-3-(6-mercapto-9H-purin-9-yl)nonan-2-ol hydrochloride] | – | X (Those which had on effect, to these levels, on either PAX6 or NANOG were considered to have a partial-EHNA effect) | – |
| CCCCCCC(C(C)O)n1cnc2c(O)ncnc21.Cl (stereo not drawn) [HWC14, erythro-9-(2-hydroxynonan-3-yl)-9H-purin-6-ol hydrochloride] | – | – | NO EHNA EFFECT (14 days, qRT-PCR): X |
| CCCCCC[C@@H]([C@@H](C)O)n1cnc2c(OC)ncnc21.Cl [HWC15, erythro-3-(6-methoxy-9H-purin-9-yl)nonan-2-ol hydrochloride] | – | – | NO EHNA EFFECT (14 days, qRT-PCR): X |
| CCCCCCC(C(C)O)n1cnc2c(NC)ncnc21 (stereo not drawn) [HWC16, erythro-3-[6-(methylamino)-9H-purin-9-yl]nonan-2-ol] | – | X (Those which had on effect, to these levels, on either PAX6 or NANOG were considered to have a partial-EHNA effect) | – |
| CCCCCC[C@@H]([C@@H](C)O)n1cnc2c(N(C)C)ncnc21.Cl [HWC17, erythro-3-[6-(dimethylamino)-9H-purin-9-yl]nonan-2-ol hydrochloride] | – | X (Those which had on effect, to these levels, on either PAX6 or NANOG were considered to have a partial-EHNA effect) | – |
| CCCCCCC(C(C)O)n1c(C)nc2c(N)ncnc21.Cl (stereo not drawn) [HWC24, erythro-3-(6-Amino-8-methyl-9H-purin-9-yl)nonan-2-ol hydrochloride] | – | X (Those which had on effect, to these levels, on either PAX6 or NANOG were considered to have a partial-EHNA effect) | – |
| CCCCCCC(C(C)O)n1cnc2c(SC)ncnc21 (stereo not drawn) [HWC25, erythro-3-[6-(methylthio)-9H-purin-9-yl]nonan-2-ol] | X | – | – |
| CCCCCC[C@@H]([C@@H](C)O)n1nnc2c(N)ncnc21 [HWC26, erythro-3-(7-amino-3H-[1,2,3]triazolo[4,5-d]pyrimidin-3-yl)nonan-2-ol] | – | X (Those which had on effect, to these levels, on either PAX6 or NANOG were considered to have a partial-EHNA effect) | – |
| CCCCCCC(C(C)O)n1cnc2c(NN)ncnc21 (stereo not drawn) [HWC27, erythro-3-(6-hydrazinyl-9H-purin-9-yl)nonan-2-ol] | – | X (Those which had on effect, to these levels, on either PAX6 or NANOG were considered to have a partial-EHNA effect) | – |
| Nc1ncnc2c1cnn2CCN1CCOCC1 [HWC28, 1-(2-morpholinoethyl)-1H-pyrazolo[3,4-d]pyrimidin-4-amine] | – | X (Those which had on effect, to these levels, on either PAX6 or NANOG were considered to have a partial-EHNA effect) | – |
| Nc1ncnc2nn(CCN3CCOCC3)cc12 [HWC29, 2-(2-morpholinoethyl)-2H-pyrazolo[3,4-d]pyrimidin-4-amine] | – | X (Those which had on effect, to these levels, on either PAX6 or NANOG were considered to have a partial-EHNA effect) | – |
| CCCCCCCCCn1cc2c(N)ncnc2n1.Cl [HWC30, 2-nonyl-2H-pyrazolo[3,4-d]pyrimidin-4-amine hydrochloride] | X | – | – |
| CCCCCCCCCn1ncc2c(N)ncnc21.Cl [HWC31, 1-nonyl-1H-pyrazolo[3,4-d]pyrimidin-4-amine hydrochloride] | X | – | – |
| CCCCCCCCCCCn1ncc2c(N)ncnc21.Cl [HWC33, 1-undecyl-1H-pyrazolo[3,4-d]pyrimidin-4-amine hydrochloride] | X | – | – |
| COCCOCCn1ncc2c(N)ncnc21 [HWC34, 1-[2-(2-methoxyethoxy)ethyl]-1H-pyrazolo[3,4-d]pyrimidin-4-amine] | – | X (Those which had on effect, to these levels, on either PAX6 or NANOG were considered to have a partial-EHNA effect) | – |
| COCCOCCn1cc2c(N)ncnc2n1 [HWC35, 2-[2-(2-methoxyethoxy)ethyl]-2H-pyrazolo[3,4-d]pyrimidin-4-amine] | – | X (Those which had on effect, to these levels, on either PAX6 or NANOG were considered to have a partial-EHNA effect) | – |
| CCCCCC[C@@H]([C@@H](C)O)n1cnc(C(N)=O)c1 [HWC36, erythro-1-(2-hydroxynonan-3-yl)-1H-imidazole-4-carboxamide] | – | – | NO EHNA EFFECT (14 days, qRT-PCR): X |
| CCCCCCCCn1ncc2c(N)ncnc21.Cl [HWC40, 1-octyl-1H-pyrazolo[3,4-d]pyrimidin-4-amine hydrochloride] | X | – | – |
| CCCCCCCCn1cc2c(N)ncnc2n1.Cl [HWC41, 2-octyl-2H-pyrazolo[3,4-d]pyrimidin-4-amine hydrochloride] | X | – | – |
